Activity calls are given as the source filed them.
Tests used:
Escherichia coli = assay: Antimicrobial activity against Escherichia coli at 10 to 50 ug/ml; type: functional, organism-based
Mycoplasma capricolum [1] = assay: Antimicrobial activity against wild-type Mycoplasma capricolum at 3.7 ug/ml; type: functional
Mycoplasma mycoides = assay: Antimicrobial activity against wild-type Mycoplasma mycoides at 1 to 3 ug/ml; type: functional
Mycoplasma capricolum [2] = assay: Antimicrobial activity against wild-type Mycoplasma capricolum at 1 to 3 ug/ml; type: functional
[3] = system: Mycoplasmoides gallisepticum; assay: Antimicrobial activity against wild-type Mycoplasma gallisepticum at 1 to 3 ug/ml; type: functional, organism-based
[4] = system: Mycoplasmoides pneumoniae; assay: Antimicrobial activity against wild-type Mycoplasma pneumoniae at 1 to 3 ug/ml; type: functional, organism-based
Mycoplasma genitalium = assay: Antimicrobial activity against wild-type Mycoplasma genitalium at 1 to 3 ug/ml; type: functional; details: Mycoplasmoides genitalium

Measured: Activity

COc1ccc(C[C@H](N)C(=O)N[C@H]2[C@@H](O)[C@H](n3cnc4c(N(C)C)ncnc43)O[C@@H]2CO)cc1
active: Escherichia coli | Mycoplasma capricolum [1] | Mycoplasma mycoides | Mycoplasma capricolum [2] | [3] | [4] | Mycoplasma genitalium

Source: ChEMBL document CHEMBL1649245
